Tested on: 282377-053-R-J1-PDC complex spheroids, viability
Assay: Anticancer human tumor 282377-053-R-J1-PDC patient-derived colon adenocarcinoma cell line growth inhibition [GQUAD]
Conditions: for IC50: curve of first compound; for viability, T/C: stronger effect = lower value
Excerpt: DNA G-quadruplex Stabilizer Agents in Combinations in Complex Spheroids
A high-throughput screen of multi-cell type tumor spheroids was designed to identify active combinations of DNA G-quadruplex stabilizer agents and targeted small molecules. Complex spheroids include a stromal component modeled by human endothelial cells (HUVEC) and fibroblasts modeled by human mesenchymal stem cells (MSCs). The concentration ranges selected for each drug and investigational agent were based upon clinically achievable concentrations if the clinical Cmax of the agent was known.
Compounds. The drugs and investigational agents: pidnarulex (CX-5461; NSC782164), APTO-253 (NSC789042), BRACO-19 (NSC847499), peposertib (NSC802822), ceralasertib (NSC780249), elimusertib (NSC800525), camonsertib (NSC841442), AZD-1390 (NSC803789), olaparib (NSC753686), talazoparib (NSC767125), ART-558 (NSC835418), sotorasib (NSC818433), MRTX-1133 (NSC836407), SN-38 (NSC673596), topotecan (NSC609699), etoposide (NSC141540), doxorubicin (NSC123127), gemcitabine (NSC613327), 5-fluorouracil (NSC19893), paclitaxel (NSC125973), vemurafenib (NSC761431), panobinostat (NSC761190), R-306465 (JNJ-16241199; NSC773264), adavosertib (NSC754352), TP-3654 (NSC805149), carboplatin (NSC241240), KSQ-4279 (NSC840948), and staurosporine (NSC755774) were obtained from the National Cancer Institute (NCI) Developmental Therapeutics Program Chemical Repository (34). The FDA-approved anticancer drug set is available from the NCI Developmental Therapeutics Program. […] The stock solutions were prepared in dimethyl sulfoxide (DMSO, Sigma-Aldrich, St. Louis, MO, cat. D2650) at 800-fold the tested concentration and stored at -70 degrees C prior to their use. All drugs and investigational agents were tested over a range starting from a high concentration at or near the clinical Cmax and decreasing in half-log increments. If the clinical Cmax for an agent had not been determined, the highest concentration tested was 10 microM.
2.3 Cell Culture. All cells were maintained in an incubator at 37 degrees C and 5% CO2 with 95% humidity. The PDC lines were cultured according to standard operating procedures established by the NCI PDMR. All PDCs were thawed and cultured in Matrigel-coated flasks prepared with a working solution of 1X Ham's F-12 nutrient mix, without supplementation (Invitrogen, cat. 11765054), 100 U/mL penicillin-streptomycin (Invitrogen, cat. 15140122), and 2.5% Matrigel (Corning Inc., cat. 354248) for the first three passages. The 857933-349-R-J2-PDC line was cultured in 6C/Colon 1B media, which includes advanced DMEM/F-12 (Thermo Fisher Scientific, cat. 12634028), 10 mM HEPES (Thermo Fisher Scientific, cat. 15630080), 1X GlutaMAX supplement (Thermo Fisher Scientific, cat. 35050061), 0.1 mg/mL primocin (InvivoGen, cat. ant-pm-2), 10% defined fetal bovine serum, heat inactivated (HyClone Laboratories Inc., cat. SH30070.03HI), 50% L-WRN conditioned media (ATCC, cat. CRL-3276), 1.25 mM N-Acetyl-L-cysteine (Sigma-Aldrich, cat. A9165), 10 mM nicotinamide (Sigma-Aldrich, cat. N0636), 1X B-27 supplement (Thermo Fisher Scientific, cat. 17504044), 1X N-2 supplement (Thermo Fisher Scientific, cat. 17502048), 10 microM Y-27632 dihydrochloride (Tocris Bioscience, cat. 1254), and 50 ng/mL human EGF recombinant protein (Thermo Fisher Scientific, cat. PHG0311). The 485176-168-R4-J1-PDC line was cultured in Panc media, which includes all 6C/Colon 1B media components plus 100 ng/mL human FGF-10 (Thermo Fisher Scientific, cat. 100-26), 500 nM SB-431542 (Selleckchem, cat. S1067), and gastrin (Tocris, cat. 3006).
[…]
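Further: spheroids exposed to compounds for 7 days before readout.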
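Wherever viability, T/C is given: percent of vehicle DMSO control viability with 100% = untreated-like growth.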

Structure (SMILES): CC1COCCN1c1cc(-c2ccnn2C)c2ccnc(-c3ccn[nH]3)c2n1 (configuration not stated) + CN(C)c1ccc(Nc2c3ccc(NC(=O)CCN4CCCC4)cc3nc3cc(NC(=O)CCN4CCCC4)ccc23)cc1
- IC50 (second compound 0.0316 µM): 612 nM
- IC50 (second compound 0.1 µM): 717 nM
- IC50 (second compound 0.316 µM): 480 nM
- IC50 (second compound 1 µM): 559 nM
- IC50 (second compound 3.16 µM): 1080 nM
- IC50 (second compound 10 µM): 745 nM
- viability, T/C (second compound 0.0316 µM, first compound 0.0316 µM): 86.5%
- viability, T/C (second compound 0.0316 µM, first compound 0.1 µM): 88%
- viability, T/C (second compound 0.0316 µM, first compound 0.316 µM): 61.9%
- viability, T/C (second compound 0.0316 µM, first compound 1 µM): 40.6%
- viability, T/C (second compound 0.0316 µM, first compound 3.16 µM): 34.6%
- viability, T/C (second compound 0.0316 µM, first compound 10 µM): 26.5%
- viability, T/C (second compound 0.1 µM, first compound 0.0316 µM): 91%
- viability, T/C (second compound 0.1 µM, first compound 0.1 µM): 75.7%
- viability, T/C (second compound 0.1 µM, first compound 0.316 µM): 67.1%
- viability, T/C (second compound 0.1 µM, first compound 1 µM): 41.7%
- viability, T/C (second compound 0.1 µM, first compound 3.16 µM): 32.8%
- viability, T/C (second compound 0.1 µM, first compound 10 µM): 24.8%
- viability, T/C (second compound 0.316 µM, first compound 0.0316 µM): 82%
- viability, T/C (second compound 0.316 µM, first compound 0.1 µM): 65.4%
- viability, T/C (second compound 0.316 µM, first compound 0.316 µM): 56.8%
- viability, T/C (second compound 0.316 µM, first compound 1 µM): 38.3%
- viability, T/C (second compound 0.316 µM, first compound 3.16 µM): 38.5%
- viability, T/C (second compound 0.316 µM, first compound 10 µM): 26.4%
- viability, T/C (second compound 1 µM, first compound 0.0316 µM): 79.1%
- viability, T/C (second compound 1 µM, first compound 0.1 µM): 101%
- viability, T/C (second compound 1 µM, first compound 0.316 µM): 67.3%
- viability, T/C (second compound 1 µM, first compound 1 µM): 36.7%
- viability, T/C (second compound 1 µM, first compound 3.16 µM): 32.6%
- viability, T/C (second compound 1 µM, first compound 10 µM): 27.8%
- viability, T/C (second compound 3.16 µM, first compound 0.0316 µM): 84.5%
- viability, T/C (second compound 3.16 µM, first compound 0.1 µM): 74%
- viability, T/C (second compound 3.16 µM, first compound 0.316 µM): 67.4%
- viability, T/C (second compound 3.16 µM, first compound 1 µM): 48.6%
- viability, T/C (second compound 3.16 µM, first compound 3.16 µM): 38.6%
- viability, T/C (second compound 3.16 µM, first compound 10 µM): 26.7%
- viability, T/C (second compound 10 µM, first compound 0.0316 µM): 85.1%
- viability, T/C (second compound 10 µM, first compound 0.1 µM): 75.4%
- viability, T/C (second compound 10 µM, first compound 0.316 µM): 64.1%
- viability, T/C (second compound 10 µM, first compound 1 µM): 42.7%
- viability, T/C (second compound 10 µM, first compound 3.16 µM): 38.6%
- viability, T/C (second compound 10 µM, first compound 10 µM): 29%
